Results reported in the NIST ThermoML archive (doi:10.1016/j.jct.2006.05.003).

What was measured:
[1] = refractive index (Na D-line) (dimensionless); conditions: 101.33 kPa, Liquid, Standard Abbe refractometry
[2] = 101 kPa, Liquid
[3] = xn = mol fraction of the nth substance listed; conditions: 101 kPa, Liquid
[4] = refractive index (Na D-line) (dimensionless); xn = mol fraction of the nth substance listed; conditions: 101 kPa, Liquid, Standard Abbe refractometry

C1COCCO1 [1,4-dioxane]
Conditions | mass density, [2] [kg/m3] | refractive index, [1]
298.15 K | 1027.87 | 1.41995
313.15 K | 1010.69 | 1.41264

C1COCCO1 [1,4-dioxane] + CC(C)(C)Cl
x1 = 1
Conditions | mass density, [3] [kg/m3] | refractive index, [4]
298.15 K | 1027.87 | 1.41995
313.15 K | 1010.69 | 1.41264

C1COCCO1 [1,4-dioxane] + CC(C)CCl
x1 = 1
Conditions | mass density, [3] [kg/m3] | refractive index, [4]
298.15 K | 1027.87 | 1.41995
313.15 K | 1010.69 | 1.41264

C1COCCO1 [1,4-dioxane] + CCC(C)Cl
x1 = 1
Conditions | mass density, [3] [kg/m3] | refractive index, [4]
298.15 K | 1027.87 | 1.41995
313.15 K | 1010.69 | 1.41264

C1COCCO1 [1,4-dioxane] + CCCCCl
x1 = 1
Conditions | mass density, [3] [kg/m3] | refractive index, [4]
298.15 K | 1027.87 | 1.41995
313.15 K | 1010.69 | 1.41264

C1COCCO1 [1,4-dioxane] + CCCCl
x1 = 1
Conditions | mass density, [3] [kg/m3] | refractive index, [4]
298.15 K | 1027.87 | 1.41995
313.15 K | 1010.69 | 1.41264

CC(C)CCl [1-chloro-2-methylpropane]
Conditions | mass density, [2] [kg/m3] | refractive index, [1]
298.15 K | 871.13 | 1.39528
313.15 K | 853.51 | 1.38686

CC(C)CCl [1-chloro-2-methylpropane] + C1COCCO1
Conditions | mass density, [3] [kg/m3] | refractive index, [4]
298.15 K, x2 = 0 | 871.13 | 1.39528
298.15 K, x2 = 0.045 | 876.79 | 1.39616
298.15 K, x2 = 0.1196 | 886.36 | 1.39763
298.15 K, x2 = 0.2433 | 902.87 | 1.40025
298.15 K, x2 = 0.3412 | 916.58 | 1.40243
298.15 K, x2 = 0.4407 | 931.19 | 1.40471
298.15 K, x2 = 0.5447 | 947.22 | 1.40725
298.15 K, x2 = 0.6463 | 963.67 | 1.40983
298.15 K, x2 = 0.737 | 979.04 | 1.4123
298.15 K, x2 = 0.8305 | 995.63 | 1.41492
298.15 K, x2 = 0.9157 | 1011.45 | 1.41742
298.15 K, x2 = 0.9515 | 1018.31 | 1.41849
313.15 K, x2 = 0 | 853.51 | 1.38686
313.15 K, x2 = 0.0474 | 859.42 | 1.38783
313.15 K, x2 = 0.1492 | 872.58 | 1.39001
313.15 K, x2 = 0.2654 | 888.36 | 1.39259
313.15 K, x2 = 0.3687 | 903.12 | 1.39504
313.15 K, x2 = 0.4565 | 916.21 | 1.39721
313.15 K, x2 = 0.5541 | 931.39 | 1.39973
313.15 K, x2 = 0.6426 | 945.76 | 1.40211
313.15 K, x2 = 0.7423 | 962.69 | 1.40489
313.15 K, x2 = 0.8326 | 978.76 | 1.40752
313.15 K, x2 = 0.9112 | 993.38 | 1.40987
313.15 K, x2 = 0.9606 | 1002.9 | 1.41139

CCCCCl [1-chlorobutane]
Conditions | mass density, [2] [kg/m3] | refractive index, [1]
298.15 K | 880.69 | 1.3995
313.15 K | 863.82 | 1.39133

CCCCCl [1-chlorobutane] + C1COCCO1
Conditions | mass density, [3] [kg/m3] | refractive index, [4]
298.15 K, x2 = 0 | 880.69 | 1.3995
298.15 K, x2 = 0.0418 | 885.54 | 1.40011
298.15 K, x2 = 0.1141 | 894.14 | 1.40119
298.15 K, x2 = 0.2426 | 910.06 | 1.40328
298.15 K, x2 = 0.3358 | 922.21 | 1.40491
298.15 K, x2 = 0.4518 | 938.11 | 1.40709
298.15 K, x2 = 0.5509 | 952.44 | 1.40908
298.15 K, x2 = 0.5914 | 958.52 | 1.40994
298.15 K, x2 = 0.738 | 981.64 | 1.41323
298.15 K, x2 = 0.8235 | 995.99 | 1.41529
298.15 K, x2 = 0.9104 | 1011.29 | 1.41752
298.15 K, x2 = 0.987 | 1025.41 | 1.4196
313.15 K, x2 = 0 | 863.82 | 1.39133
313.15 K, x2 = 0.0344 | 867.83 | 1.39188
313.15 K, x2 = 0.117 | 877.61 | 1.39321
313.15 K, x2 = 0.2279 | 891.26 | 1.39506
313.15 K, x2 = 0.3499 | 907.15 | 1.39732
313.15 K, x2 = 0.4442 | 920.15 | 1.39917
313.15 K, x2 = 0.55 | 935.51 | 1.40138
313.15 K, x2 = 0.645 | 950.02 | 1.40351
313.15 K, x2 = 0.7456 | 966.15 | 1.40591
313.15 K, x2 = 0.8238 | 979.22 | 1.40786
313.15 K, x2 = 0.9143 | 995.01 | 1.41024
313.15 K, x2 = 0.9636 | 1003.94 | 1.41159

CCCCl [1-chloropropane]
Conditions | mass density, [2] [kg/m3] | refractive index, [1]
298.15 K | 884.26 | 1.3856
313.15 K | 865.14 | 1.37673
